Our source for the GI50 and TGI values is PubChem BioAssay (NCI).

Among the test systems are CAKI-1 renal; CCRF-CEM leukemia; HOP-92 NSCLC; MDA-MB-231 breast; MDA-MB-435; A549 NSCLC; HCT-116 colon; MOLT-4 leukemia; OVCAR-8 ovarian; SR leukemia.
Holding throughout (assay): DTP human tumour cell line panel, 48 h

For orientation: GI50 means the concentration at which growth is held to half of that of the control. The term TGI denotes the concentration at which net growth stops. Low values mean more potent growth arrest, high ones less potent growth arrest.

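All cell lines were grown in 96-well plates and treated with compound for 48 hours. GI50 is the concentration that inhibits growth by half. TGI denotes the concentration required for complete inhibition of growth.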

As to `COc1cccc2c(=O)c3c(sc12)c(NCCCN)nc1ccccc13`, the GI50 is 1.48 µM with CAKI-1 renal; 1.91 µM in the assay on CCRF-CEM leukemia; 1.27 µM in the assay with HOP-92 NSCLC; 1.29 µM in the assay with MDA-MB-231 breast; 1.8 µM with MDA-MB-435. The TGI with CAKI-1 renal worked out at 2.82 µM; with CCRF-CEM leukemia, 4.86 µM; with HOP-92 NSCLC, 2.75 µM; with MDA-MB-231 breast it was 2.67 µM; in the assay with MDA-MB-435, 3.34 µM.

In the case of `CN(C)CCNc1cccc2sc3ccc(O)cc3c(=O)c12`, the GI50 in the assay with A549 NSCLC was 0.643 µM; with CAKI-1 renal it was 2.22 µM; in the assay with CCRF-CEM leukemia, 0.777 µM; in the assay on HCT-116 colon, 2.12 µM; with MDA-MB-231 breast, 1.48 µM; with MDA-MB-435, 1.49 µM. Moreover, the GI50 with MOLT-4 leukemia is 0.483 µM; in the assay with OVCAR-8 ovarian, 2.16 µM; in the assay with SR leukemia, 1.08 µM. For the same compound, the TGI came out at 5.54 µM with A549 NSCLC; 13.3 µM in the assay on CAKI-1 renal; 6.61 µM in the assay on CCRF-CEM leukemia; 9.68 µM in the assay on HCT-116 colon; 3.72 µM with MDA-MB-231 breast; 3.16 µM with MDA-MB-435. In addition, the TGI worked out at 2.81 µM with MOLT-4 leukemia, 9.78 µM in the assay on OVCAR-8 ovarian and 4.37 µM in the assay on SR leukemia.

With `Cc1cc(O)cc(C)c1/C=C/c1cncc(C(=O)N(C)C)c1`, the GI50 in the assay on A549 NSCLC, in the assay with CAKI-1 renal, in the assay on CCRF-CEM leukemia, with HCT-116 colon, in the assay with HOP-92 NSCLC and in the assay with MDA-MB-231 breast was > 25 µM in each case. In addition, the GI50 in the assay with MDA-MB-435, in the assay on MOLT-4 leukemia and in the assay with OVCAR-8 ovarian was > 25 µM throughout. Besides, the TGI in the assay on A549 NSCLC, in the assay with CAKI-1 renal, with CCRF-CEM leukemia, in the assay on HCT-116 colon, in the assay with HOP-92 NSCLC and in the assay on MDA-MB-231 breast was > 25 µM throughout. For the same compound, the TGI in the assay on MDA-MB-435, with MOLT-4 leukemia and in the assay with OVCAR-8 ovarian was > 25 µM throughout.

As to `O=C1NC(=O)C(c2ccccc2Cl)=C1Nc1cccc(O)c1`, the GI50 with A549 NSCLC was 11.2 µM; in the assay on CAKI-1 renal, 4.41 µM; with CCRF-CEM leukemia, 7.05 µM; in the assay with HCT-116 colon, 7.51 µM; in the assay with HOP-92 NSCLC it was 8.53 µM; in the assay with MDA-MB-231 breast it was > 25 µM. The GI50 in the assay with MOLT-4 leukemia was > 25 µM; in the assay with OVCAR-8 ovarian it was 24.6 µM; in the assay on SR leukemia, 1.97 µM. In addition, the TGI with A549 NSCLC, in the assay on CAKI-1 renal, in the assay with CCRF-CEM leukemia, in the assay on HCT-116 colon, in the assay on HOP-92 NSCLC and in the assay on MDA-MB-231 breast was > 25 µM throughout. Besides, the TGI in the assay with MOLT-4 leukemia, with OVCAR-8 ovarian and in the assay on SR leukemia was > 25 µM each time.

Consider `C=C1C(=O)O[C@H]2[C@H]1CC/C(COC(=O)c1ccc(C(=O)O)s1)=C\CC[C@@]1(C)O[C@@H]21`, for which the GI50 was 5.35 µM in the assay with A549 NSCLC; 1.71 µM with CAKI-1 renal; 1.63 µM in the assay on CCRF-CEM leukemia; 0.715 µM in the assay on HCT-116 colon; 1.61 µM in the assay on HOP-92 NSCLC; 1.6 µM in the assay with MDA-MB-231 breast. Besides, the GI50 in the assay on MDA-MB-435 is 1.92 µM; in the assay on MOLT-4 leukemia, 2.38 µM; with OVCAR-8 ovarian, 2.69 µM. The TGI in the assay on A549 NSCLC came to 18.4 µM; in the assay with CAKI-1 renal, 3.11 µM; in the assay with CCRF-CEM leukemia, 8.66 µM; with HCT-116 colon it was 2.03 µM; with HOP-92 NSCLC, 3.45 µM; in the assay with MDA-MB-231 breast it was 3.06 µM. In addition, the results for the concentration for total growth inhibition (TGI) with MDA-MB-435, with MOLT-4 leukemia and in the assay with OVCAR-8 ovarian were 4 µM, 7.2 µM and 7.84 µM, respectively.

Take `CCOC(=O)/C=C/c1ccc(C(=O)OCC)[nH]1`: the GI50 with A549 NSCLC was 5.69 µM; in the assay with CAKI-1 renal it was 6.36 µM; in the assay on CCRF-CEM leukemia, 6.04 µM; with HCT-116 colon it was 4.56 µM; in the assay on MDA-MB-231 breast, 13.7 µM; with MDA-MB-435 it was 0.393 µM. The GI50 in the assay with MOLT-4 leukemia was 4.42 µM; in the assay with OVCAR-8 ovarian it was 5.82 µM; in the assay with SR leukemia, 0.676 µM. For the same compound, the TGI with A549 NSCLC was > 100 µM; in the assay with CAKI-1 renal it was > 100 µM; in the assay with CCRF-CEM leukemia, > 100 µM; in the assay with HCT-116 colon, > 100 µM; in the assay on MDA-MB-231 breast, > 100 µM; in the assay on MDA-MB-435, 2.29 µM. Besides, the TGI in the assay on MOLT-4 leukemia, with OVCAR-8 ovarian and in the assay on SR leukemia was > 100 µM each time.

With `ClCCn1cnc2c(SCc3ccccc3)ncnc21`, the GI50 with A549 NSCLC is 1.22 µM; in the assay with CAKI-1 renal, 8.86 µM; with CCRF-CEM leukemia it was 0.889 µM; in the assay on HCT-116 colon, 0.381 µM; with HOP-92 NSCLC, 16.3 µM; in the assay with MDA-MB-231 breast, 30 µM. The figures for the GI50 with MDA-MB-435, in the assay on MOLT-4 leukemia and with OVCAR-8 ovarian were 3.47 µM, 0.823 µM and 1.18 µM, respectively. Further, the TGI in the assay on A549 NSCLC was 76.5 µM; in the assay on CAKI-1 renal, > 100 µM; in the assay with CCRF-CEM leukemia it was > 100 µM; in the assay with HCT-116 colon, 38.4 µM; in the assay with HOP-92 NSCLC, > 100 µM; in the assay on MDA-MB-231 breast it was > 100 µM. Moreover, the TGI with MDA-MB-435, with MOLT-4 leukemia and in the assay with OVCAR-8 ovarian was > 100 µM throughout.

`CCN(CC)CC(C)Nc1ccc(C)c2sc3ccccc3c(=O)c12` (stereo unspecified): the GI50 in the assay with A549 NSCLC was 3.02 µM; in the assay on CAKI-1 renal, 3.04 µM; in the assay on CCRF-CEM leukemia, 4.33 µM; in the assay on HCT-116 colon, 3.07 µM; in the assay on HOP-92 NSCLC, 0.896 µM; with MDA-MB-231 breast, 2.42 µM. Besides, the GI50 is 3.37 µM in the assay on MDA-MB-435, 1.68 µM with MOLT-4 leukemia and 6.86 µM with OVCAR-8 ovarian. Further, the TGI with A549 NSCLC is 16.8 µM; in the assay with CAKI-1 renal, 14.1 µM; in the assay with CCRF-CEM leukemia, 18 µM; with HCT-116 colon, 12.3 µM; in the assay with HOP-92 NSCLC, 8.36 µM; in the assay with MDA-MB-231 breast, 8.99 µM. The TGI in the assay on MDA-MB-435 was 11.9 µM; with MOLT-4 leukemia, 5.93 µM; in the assay with OVCAR-8 ovarian it was 25.3 µM.
